Measurements taken from US5149779A, “Humoral hypercalcemic factor antagonists” (Merck & Co., Inc., priority 1990, dated 1992).

Biological target: T1, human osteosarcoma cell line, B10 (Homo sapiens, UniProt Q03431)
T1 construct: analyzed in a human osteosarcoma cell line, B10; endogenous in cells; host or cells: human osteosarcoma cell line B10
T1 sequence (Q03431 27-593): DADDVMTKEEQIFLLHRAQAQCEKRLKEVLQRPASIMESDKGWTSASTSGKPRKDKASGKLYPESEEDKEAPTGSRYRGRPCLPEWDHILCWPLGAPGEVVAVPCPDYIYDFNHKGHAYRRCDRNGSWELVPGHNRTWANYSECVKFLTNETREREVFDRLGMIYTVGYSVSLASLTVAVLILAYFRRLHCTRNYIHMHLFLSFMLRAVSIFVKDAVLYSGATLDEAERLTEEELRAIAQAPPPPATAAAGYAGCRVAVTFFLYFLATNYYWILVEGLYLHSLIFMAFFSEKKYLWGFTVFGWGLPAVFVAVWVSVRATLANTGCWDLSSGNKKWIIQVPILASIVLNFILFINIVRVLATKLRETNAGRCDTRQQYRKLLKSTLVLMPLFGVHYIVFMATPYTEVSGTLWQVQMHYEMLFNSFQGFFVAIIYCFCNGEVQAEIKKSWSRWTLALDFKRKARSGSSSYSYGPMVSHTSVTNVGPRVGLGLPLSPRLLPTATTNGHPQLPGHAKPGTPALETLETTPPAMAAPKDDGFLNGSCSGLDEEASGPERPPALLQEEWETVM
Experiment: Human bone cell (B10) adenylate cyclase assay
Type: cell-based
Procedure: HCF analogues were analyzed in a human osteosarcoma cell line, B10, for the ability to inhibit cAMP stimulation by 1 nM [Nle^8,18,Tyr^34 ]bPTH(1-34)NH2 by the method described by R. J. Majeska et al., Endocrinol., 107: 1494 (1980).

Ki [nM] | Structure (SMILES)
3.2 ± 1 | CC[C@H](C)[C@H](NC(=O)[C@H](CC(C)C)NC(=O)[C@H](Cc1c[nH]cn1)NC(=O)[C@H](Cc1c[nH]cn1)NC(=O)[C@H](CC(C)C)NC(=O)[C@H](Cc1ccccc1)NC(=O)[C@H](Cc1ccccc1)NC(=O)[C@H](CCCNC(=N)N)NC(=O)[C@H](CCCNC(=N)N)NC(=O)[C@H](CCCNC(=N)N)NC(=O)[C@H](CC(C)C)NC(=O)[C@@H]1CC(=O)NCCCC[C@H](NC(=O)[C@@H](Cc2c[nH]c3ccccc23)NC(=O)[C@H](CC(C)C)NC(=O)[C@H](CC(=O)O)NC(=O)[C@H](Cc2c[nH]cn2)NC(=O)[C@H](CC(C)C)NC(=O)[C@@H](N)CC(C)C)C(=O)N[C@@H](CO)C(=O)N[C@@H]([C@@H](C)CC)C(=O)N[C@@H](CCC(N)=O)C(=O)N1)C(=O)N[C@@H](C)C(=O)N[C@@H](CCC(=O)O)C(=O)N[C@H](C(=O)N[C@@H](Cc1c[nH]cn1)C(=O)N[C@H](C(=O)N[C@@H](C)C(N)=O)[C@@H](C)O)[C@@H](C)CC
3.6 ± 0.8 | CC[C@H](C)[C@H](NC(=O)[C@H](CC(C)C)NC(=O)[C@H](Cc1c[nH]cn1)NC(=O)[C@H](Cc1c[nH]cn1)NC(=O)[C@H](CC(C)C)NC(=O)[C@H](Cc1ccccc1)NC(=O)[C@H](Cc1ccccc1)NC(=O)[C@H](CCCNC(=N)N)NC(=O)[C@H](CCCNC(=N)N)NC(=O)[C@H](CCCNC(=N)N)NC(=O)[C@H](CC(C)C)NC(=O)[C@@H]1CC(=O)NCCCC[C@H](NC(=O)[C@@H](Cc2c[nH]c3ccccc23)NC(=O)[C@H](CC(C)C)NC(=O)[C@H](CC(=O)O)NC(C)=O)C(=O)N[C@@H](CO)C(=O)N[C@@H]([C@@H](C)CC)C(=O)N[C@@H](CCC(N)=O)C(=O)N1)C(=O)N[C@@H](C)C(=O)N[C@@H](CCC(=O)O)C(=O)N[C@H](C(=O)N[C@@H](Cc1c[nH]cn1)C(=O)N[C@H](C(=O)N[C@@H](C)C(N)=O)[C@@H](C)O)[C@@H](C)CC
